In a melting point compilation (Tetko et al.; mined from patent text by program, amines drawn as free bases though some values may be those of a salt) one finds melting point data, which are given here for 66 compounds.

The structures appear in SMILES notation.

Broadly, the melting point is the temperature of the solid-liquid transition.

`O=C(CCN1CCN(c2cccc3[nH]ccc23)CC1)c1csc2ccc(F)cc12` displayed a melting point of 76 to 78 °C.

The compound `CSCc1cn(C)c2ccc(Cl)cc2c1=O` registered a melting point of 148 to 150 °C.

`O=Cc1ccc(C(O)c2cccnc2)cc1` (stereo unspecified): the melting point lay within 104 to 105 °C.

`O=C(NCC1CCNCC1)c1ccccc1`: the melting point worked out at 119 °C.

For the compound `COC(=O)c1ccc2c(c1)CC(=O)O2`, the melting point lay within 102 to 103 °C.

The compound `CCc1c(-c2ccc(OC)cc2)c2ccc3cc(OC)cc1n32` came in with a melting point of 109 to 111 °C.

For the compound `O=C(c1ccccc1)N(c1ccccc1)c1ccc(OCCN2CCOCC2)cc1`, the melting point was 81.5 to 84.5 °C.

In turn, `CC(C)COc1ccc(C(=O)N/C(=C\c2ccc(C(F)(F)F)cc2)C(=O)NCCO)cc1` gave a melting point of 207 to 210 °C.

`CC(C)(C)C(=O)Oc1ccc(CCNc2nc(N)n3nc(-c4ccco4)nc3n2)cc1` displayed a melting point of 208 to 210 °C.

In turn, `COC(=O)CCCC#CCC1C(=O)CCCC1=O` showed a melting point of 108 to 110 °C.

As for `CCOC(=O)N1CCCSC1=C(C(C)=O)[N+](=O)[O-]`, the melting point is 52 to 54 °C.

The compound `ON=Cc1csc2ccccc12` came in with a melting point of 87 to 89 °C.

Compound `CCCCCCCC(=O)CCC(=O)O` yielded a melting point of 78 to 78.5 °C.

Compound `Cc1c(F)c(F)cc(C(N)=O)c1F` had a melting point of 105 to 108 °C.

As to `CCOC(=O)c1nc(-c2cccc(C)c2)cn1C`, the melting point lay within 176 to 177 °C.

In turn, `CC(C)(C)c1cc(C(=O)c2ccc(O)cc2)cc(C(C)(C)C)c1O` yielded a melting point of 188 to 190 °C.

The compound `CCn1c(=O)c2c(nc(/C=C/c3ccc(OCOC)c(OC)c3)n2C)n(CC)c1=O` displayed a melting point of 179 to 181 °C.

Compound `CC(C#CCn1ccnc1)N1CCN(C)C1=O` (stereo unspecified) showed a melting point of 89 to 92 °C.

Compound `Nc1cc(Cl)cc(N)c1[N+](=O)[O-]` returned a melting point of 202 °C.

On to `O=C1NC(OC(=O)c2ccccc2)C2=C1c1ccc(Cl)cc1C(c1ccccc1Cl)=NC2` (stereo unspecified), for which the melting point lay in the range of 140 to 142 °C.

In the case of `CC(=O)COc1cccnc1C(N)=O`, the melting point was in the range of 135 to 140 °C.

In turn, `O=CNCCSc1ccc2nccn2n1` came in with a melting point of 148 to 151 °C.

On to `Cc1cc(C)c(S(=O)(=O)NCC(O)(Cn2cncn2)c2ccc(Cl)cc2Cl)c(C)c1` (stereo unspecified), for which the melting point lay in the range of 171 to 172 °C.

Compound `CCOC(=O)Cc1cnc(-c2cc3cccc(N(C)S(=O)(=O)c4cccs4)c3[nH]2)s1` gave a melting point of 126 to 127 °C.

Take `O=C1c2cccc3cc(OS(=O)(=O)C(F)(F)F)cc(c23)C(=O)N1O`: the melting point is 167 to 169 °C.

`O=C(C=Cc1ccccc1)N1CCc2c([nH]c3ccccc23)C1c1ccccc1` (stereo unspecified) had a melting point of 130 to 132 °C.

Turning to `Nc1ncccc1-c1nc2cc(Br)cnc2n1-c1ccc(NC(=O)c2ccccc2)cc1`, the melting point lay within 242 to 244 °C.

`c1ccc(-c2cc3nnc(-c4cnccn4)n3nc2OCc2nc[nH]n2)cc1`: the melting point amounted to 255 °C.

`Cc1noc(-c2cccc(NC(=O)Oc3ccc([N+](=O)[O-])cc3)c2)n1` displayed a melting point of 217 to 220 °C.

Regarding `Cc1ccccc1N1CCN(CCn2c(=O)[nH]c3sccc3c2=O)CC1`, the melting point is 191 to 193 °C.

As to `COc1ccc(C[C@@H](C(=O)[C@H](Cc2ccc(OC)c(OC)c2)N2C(=O)c3ccccc3C2=O)N2C(=O)c3ccccc3C2=O)cc1OC`, the melting point lay within 126 to 128 °C.

`Cc1cc(C)cc(NC(=O)Cc2ccc(O)cc2)c1` had a melting point of 183 to 185 °C.

`NC(=O)NN=Cc1c2ccccc2c(C=NNC(N)=O)c2ccccc12` gave a melting point of 300 °C.

As to `Cc1nsnc1-c1cccnc1`, the melting point fell in the range of 55 to 57 °C.

`O=c1oc2ccccc2c(O)c1[C@@H]1C[C@@H](c2ccc(OCc3ccc(C(F)(F)F)cc3)cc2)Cc2ccccc21` (relative stereo) returned a melting point of 153 to 155 °C.

Regarding `CC(=O)c1ccc(N(C)C)c(S(N)(=O)=O)c1`, the melting point fell in the range of 184 to 185 °C.

With `O=C1NC(=O)C(Cc2ccc(OCc3nc4cccnc4n3Cc3ccc(-c4ccccc4)cc3)cc2)S1` (stereo unspecified), the melting point was in the range of 189 to 191 °C.

Turning to `CCOC(=O)N1CCSC1COc1ccccc1OC` (single isomer, unassigned; (-)), the melting point lay within 64 to 65 °C.

`CN1CCCCC1CCc1ccccc1NS(C)(=O)=O` (stereo unspecified) had a melting point of 91.5 to 93.5 °C.

Compound `CCC(=O)NCCC1=CCc2cc(Br)c(OC)cc21` displayed a melting point of 106 to 109 °C.

The compound `O=C(O)C(O)=CC(=O)c1cc(Cc2ccc(F)cc2F)cn(Cc2ccccc2F)c1=O` had a melting point of 187 to 189 °C.

`CC(C)OC(=O)c1cc(-n2c(=O)c3c(n(C)c2=O)CCS3)c(F)cc1Cl` registered a melting point of 156 to 158 °C.

Compound `CN1CC(=O)Nc2cscc2C1=O` displayed a melting point of 263 to 265 °C.

`Cc1cc(OCCN(C)C)ccc1NC(=O)c1ccc(N2CCNCC2)cc1` showed a melting point of 139 to 141 °C.

Turning to `CC(=O)N1C(=O)N(COCc2ccccc2)C(=O)C12c1ccccc1N(CC(C)C)C(=O)N2C` (stereo unspecified), the melting point lay in the range of 70 to 72 °C.

The compound `Cc1ccc([N+](=O)[O-])c(C(O)=S)c1` returned a melting point of 165 to 169 °C.

In turn, `C=C(c1ccsc1C(=O)O)c1cc(C(C)(C)C)cc2c1CCC2(C)C` had a melting point of 146 to 148 °C.

With `CCc1ccccc1CCC(=O)O`, the melting point is 87 to 91 °C.

The compound `CN(C)C(=O)Nc1nsnc1-c1c(Cl)cccc1Cl` had a melting point of 100 to 103 °C.

`C#CCn1c(Br)c(C[C@H](NC(C)=O)C(=O)OC)c2c(Br)c(OC)c(Br)cc21` registered a melting point of 284 to 285 °C.

For the compound `Cc1cccc(C)c1NCCCCn1ccnc1`, the melting point lay in the range of 146 to 147 °C.

With `Fc1ccccc1C(c1ccccc1)n1cccc1` (stereo unspecified), the melting point was 81 to 82.5 °C.

The compound `C=COC(=O)NC1Cc2ccc(-c3ccc(=O)[nH]n3)cc2C1` (stereo unspecified) gave a melting point of 205 to 206 °C.

Regarding `O=C(CN1CCOCC1)N[C@@H](Cc1ccccc1)[C@@H](O)[C@H](O)[C@H](Cc1ccccc1)NC(=O)CN1CCOCC1`, the melting point was in the range of 172 to 177 °C.

Take `CCN(C(=O)C1CC1)c1cnn2ccccc12`: the melting point lay in the range of 83 to 86 °C.

Take `Oc1ccccc1NCCCCCCBr`: the melting point lay in the range of 124 to 126 °C.

The compound `N#Cc1c(Cl)ccnc1Cl` gave a melting point of 107 to 109 °C.

In turn, `Nc1nccn2c(C3CCC3)nc(-c3ccc4cccnc4c3)c12` returned a melting point of 94 to 96 °C.

`CNc1nc(N)nc2cc(-c3ccccc3S(=O)(=O)NC)ccc12` displayed a melting point of 316 to 317 °C.

With `COC(=O)CCc1sc(NC(=O)C[C@H]2O[C@H](c3cccc(OC)c3OC)c3cc(Cl)ccc3N(CC(C)(C)COC(C)=O)C2=O)nc1-c1ccccc1`, the melting point worked out at 168 °C.

`CN1CCN(Cc2ccc3nc(-c4ccc(Cl)c(C#Cc5cnc6cccnn56)c4)[nH]c3c2)CC1` returned a melting point of 156 to 157 °C.

Compound `Cc1nccn1-c1ccc([N+](=O)[O-])cc1F` returned a melting point of 106 to 107 °C.

The compound `CCS(=O)(=O)Nc1cccc(C=C2c3ccccc3CCc3ccccc32)c1` returned a melting point of 180 °C.

In turn, `CCc1ccc(NC(=O)NCC2(c3ccccc3)CCCCC2)cc1` came in with a melting point of 138 to 139 °C.

In turn, `CCCCCCCN1CCCc2cccc(O)c21` showed a melting point of 33 to 34 °C.

`CCc1cc(OC)c(C=O)cc1OC` displayed a melting point of 46 to 47 °C.
